How the values were obtained:
[1] = test system: L. amazonensis (RFP) amastigotes; test: Antiamastigote assay (RFP fluorescence, infected peritoneal macrophages); assay type: cell-based; conditions: 72 h of incubation; interval in brackets; read-out: Antileishmanial effect in Leishmania amazonensis IC50 Amastigote
Procedure: Peritoneal macrophages from BALB/c mice were obtained by peritoneal lavage and distributed in 24-well plates at 2 × 10^6 cells/mL in RPMI medium (Cultilab) containing 10% FBS and a 0.5% penicillin and streptomycin solution (complete RPMI). The plates were incubated for 1 h at 37 °C and 5% CO2, washed with phosphate-buffered saline (PBS), and then reincubated in complete RPMI medium overnight. The cells were washed again with PBS and infected with stationary growth phase L. amazonensis (RFP) promastigotes at a 10:1 ratio for 4 h at 33 °C. The plates were washed with PBS and the inhibitors were added at different concentrations and incubated for 72 h. After this time, each well was scraped to remove attached cells and the reading was taken with a spectrofluorimeter (FLx800, BioTek Instruments, Winooski, VT, USA) at 530 nm and 590 nm of excitation and emission, respectively. […] All assays were performed in triplicate and repeated three times. Results were calculated as the percentage of amastigote survival compared with the nontreated control group, and IC50 values were determined using GraphPad Prism 8 software.

[2] = test system: L. amazonensis in peritoneal macrophages; test: Promastigote pretreatment and infection of peritoneal macrophages; assay type: cell-based, Leishmania amazonensis; conditions: for entry of promastigotes into macrophages: promastigotes pretreated 1 h, 0 h after 4 h interaction
Procedure: Leishmania amazonensis-RFP promastigotes were pretreated with different concentrations of inhbitors during 1 h at 25 °C. The cells were washed with PBS and used to infect peritoneal macrophages from BALB/c mice (10:1 ratio), not pretreated or pretreated with 0.5 ng/mL IFN-γ overnight, in 24-well plates. After 4 h of interaction, the plates were washed with PBS and (1) scraped to remove attached cells and read using a spectrofluorimeter (time = 0 h) or (2) incubated at 33 °C with 5% CO2 for 24 h, 48 h, and 72 h for later scraping and reading (times = 24 h, 48 h, and 72 h). Three experiments were performed, each one with three replicates.
The same experiment was repeated, but using 13 mm glass coverslips in 24-well plates. The fixation with ethanol and staining with Giemsa were performed. Subsequently, the slides were examined in an optical microscope (Olympus BX53, Shinjuku, Tokyo, Japan) and photographed (Olympus DP73, Shinjuku, Tokyo, Japan).

[3] = test system: Leishmania amazonensis-RFP promastigotes; test: Viability of promastigotes after 1 h of treatment with inhibitors; assay type: cell-based; conditions: 1 h treatment, washed; 0 h, 24 h, 48 h and 72 h of incubation
Procedure: Leishmania amazonensis-RFP promastigotes were treated with different concentrations of inhibitors during 1 h at 25 °C and were washed with PBS. Then, these cells had their viability determined by fluorescence analysis using a spectrofluorimeter (time = 0 h) and were also reincubated in complete RPMI medium for subsequent analysis of cell viability after 24 h, 48 h, and 72 h (times = 24 h, 48 h, and 72 h) by fluorescence analysis.

[4] = test system: peritoneal macrophages from BALB/c mice; test: Cytotoxicity assay (MTT); assay type: cell-based; conditions: 72 h of incubation; MTT; interval in brackets
Procedure: To determinate the toxicity of the inhibitors on mammalian cells, peritoneal macrophages from BALB/c mice, obtained by peritoneal lavage, in concentration of 2 × 10^6 macrophages/mL, were adhered in 96-well culture plates overnight at 37 °C with 5% CO2. The inhibitors were then added in different concentrations and incubated for 72 h at 37 °C and 5% CO2. Cell viability was also assessed by the MTT method. Cytotoxic concentration of 50% of macrophages (CC50) values were calculated using GraPadPrism 8 software. Three independent experiments in triplicate were performed.

[5] = test system: Leishmania amazonensis-WT promastigotes; test: Antipromastigote assay (MTT); assay type: cell-based; conditions: for IC50: 72 h of incubation, interval in brackets, read-out: Antileishmanial effect in Leishmania amazonensis IC50 Promastigote
Procedure: Leishmania amazonensis–WT promastigotes, in the logarithmic phase of growth, were transferred to 96-well culture plates (final concentration 2 × 10^6 cells/mL) and exposed to different concentrations of inhbitors during 72 h at 25 °C. The cell viability was evaluated by the 3-(4,5-dimethylthiazol-2-yl)-2,5 diphenyltetrazolium bromide (MTT) method (obtained from Sigma-Aldrich). The inhibitory concentration of 50% of parasite growth (IC50) values were calculated using GraphPad Prism 8 software […]. Three independent experiments in triplicate were performed. Amphotericin B (Cristália, São Paulo, SP, Brazil) was used as a reference drug.

[6] = test system: L. amazonensis promastigotes; parameters: method as in PMID 17726617; conditions: 100 µM; cited from earlier work
[7] = test system: L. donovani serine proteases; parameters: method as in PMID 26040107; conditions: concentration not given; cited from earlier work
[8] = test system: L. donovani promastigotes; parameters: method as in PMID 26040107; conditions: concentration not given; cited from earlier work
[9] = test system: L. amazonensis promastigotes and amastigotes; conditions: cited from earlier work
L. amazonensis = conditions: mice infected with L. amazonensis; cited from earlier work
[10] = test system: L. amazonensis serine proteases; parameters: method as in PMID 25583728; conditions: cited from earlier work

Molecule | IC50 [1] [µM] | entry of promastigotes into macrophages [2] | permanence and survival of amastigotes within host cells ([2]; promastigotes pretreated 1 h with 200 µM or 6.25 µM, up to 72 h) | viability of promastigotes after 1 h of treatment, compared with the control [3] | CC50 [4] [µM] | IC50 [5] [µM] | viability of L. amazonensis promastigotes [6] | survival of parasites within macrophages ([2]; promastigotes pretreated 1 h with 100 µM, 48 h and 72 h of infection) | inhibition of the proteolytic activity [7] [%] | inhibition of the parasite's viability ([5]; promastigotes, 6.25 µM) | cell viability of L. donovani promastigotes (reduction) [8] | effect on promastigotes and amastigotes of L. amazonensis [9] | lesion size (L. amazonensis) | inhibition of L. amazonensis serine proteases [10]
O=S(=O)(F)Cc1ccccc1 [PMSF] | > 200 | did not change the entry | did not alter the permanence and survival | did not change the viability | 269 | > 200 |  |  |  |  |  |  |  | 
Cc1ccc(S(=O)(=O)N[C@@H](CCCCN)C(=O)CCl)cc1 [TLCK] | 140 | occurred similarly to the control |  | did not change the viability | 104 | 52.5 | did not reduce promastigote viability | slightly reduced | 18 | around 10% | only did so after 15 h and 20 h |  |  | 
epoxy-α-lapachone |  |  |  |  |  |  |  |  |  |  |  | effective against promastigotes and amastigotes | reduction of the lesion size | inhibited L. amazonensis serine proteases

From publication PMC11760092, “Pretreatment with serine protease inhibitors impairs Leishmania amazonensis survival on macrophages” (Parasites & Vectors, 2025)
